Assay results taken from ChEMBL document CHEMBL1149543, “Discovery of inhibitors of the pentein superfamily protein dimethylarginine dimethylaminohydrolase (DDAH), by virtual screening and hit analysis” (Bioorg Med Chem Lett, 2007).
pIC50: −log10 of the molar value.

Assay: Inhibition of Pseudomonas aeruginosa DDAH

| Structure (SMILES) | pIC50 |
| --- | --- |
| O=C(Cn1cc(/C=C2\C(=O)NC(=S)N(c3ccccc3)C2=O)c2ccccc21)NCc1ccco1 | 4.77 |
| O=C(Cn1cc(C=C2C(=O)NC(=S)NC2=O)c2ccccc21)NCc1ccco1 | 5.19 |
| COc1ccc(N2C(=O)/C(=C/c3c[nH]c4ccccc34)C(=O)NC2=S)cc1 | 5.70 |
